Test results reported in article PMC9776540, “Therapeutic Potential of a Water-Soluble Silver-Diclofenac Coordination Polymer on 3D Pancreatic Cancer Spheroids” (Journal of Medicinal Chemistry, 2022).

Experiments:
A549 [1] = experiment: MTT cytotoxicity assay (IC50); type: cell-based, human; settings: Homo sapiens, A549, 72 h
Experimental: (§1) MCF7 cell line (human breast adenocarcinoma, morphology: epithelial-like, ATCC: HTB-22), A549 cell […]
(§2) keratinocyte, morphology: epidermal, CSL Cell Lines Service GmbH); were cultured in Dulbecco’s Modified Eagle’s Medium (DMEM, Corning) with phenol red, supplemented with 10% fetal bovine serum (FBS) and with 1% streptomycin/penicillin. […]
(§3) from metastatic site: brain, ATCC: HTB-81) and MCR-5 cell line (primary line of human pulmonary […]
(§4) 10% fetal bovine serum (FBS). Cultures were incubated at 37 °C under a humidified atmosphere containing 5% CO2. Cells were transferred using a solution containing 0.05% trypsin and 0.5 mM EDTA.
(§5) All media and other ingredients were purchased from ALAB, Poland.
(§6) Cytotoxicity was assessed by MTT assay performed according the protocols described elsewhere.S1 In brief, 1×10^4 cells per well, seeded in 96-well flat bottom microtiter plate, were incubated with the tested compounds (in the appropriate media) at various range of concentrations for 24 h. After that time, solutions of compounds were washed out, cells were washed three times with PBS and fresh medium was applied. After next 72 h cell viability was determined using the Hill equation (Origin 9.0) with regard to the untreated cells (control), where y0 – untreated cell control (which was set to 100% viability), y100 – a lysis control (where the cells were treated with 0.5% triton X-100 was set to 0% […]
(§7) [c] at which the viability of the cells reaches 50%, H – the Hill coefficient (describing cooperativity):
(§8) Each compound concentration was tested in five replicates and repeated at least three times.
(§9) Determined values of IC50 are given as mean + S.D. (Standard Deviation).
(§10) Cisplatin was tested as a reference anticancer drug. […]

DU-145 [2] = experiment: MTT cytotoxicity assay (IC50); type: cell-based, human; settings: Homo sapiens, DU-145, 72 h
Experimental: as §1, §2, §3, §4, §5, §6, §7, §8, §9, §10

HaCat [3] = experiment: MTT cytotoxicity assay (IC50); type: cell-based, human; settings: Homo sapiens, HaCaT, 72 h
Experimental: as §1, §2, §3, §4, §5, §6, §7, §8, §9, §10

MCF7 = experiment: MTT cytotoxicity assay (IC50); type: cell-based, human; settings: Homo sapiens, MCF7, 72 h
Experimental: as §1, §2, §3, §4, §5, §6, §7, §8, §9, §10

MRC5 = experiment: MTT cytotoxicity assay (IC50); type: cell-based, human; settings: Homo sapiens, MRC5, 72 h
Experimental: as §1, §2, §3, §4, §5, §6, §7, §8, §9, §10

PANC-1 [4] = experiment: MTT cytotoxicity assay (IC50); type: cell-based, human; settings: Homo sapiens, PANC-1, 72 h
Experimental: as §1, §2, §3, §4, §5, §6, §7, §8, §9, §10

A549 [5] = experiment: MTT survival test, surviving fraction (Table S3); type: cell-based, human
Experimental: (§11) 24, and 72 h. After each incubation time, the cells were washed with PBS. Then, fresh medium (supplemented with 10% FSB) was added, and the cells were incubated under standard conditions for another 24 h (6h + 24h, 24h + 24h, 72h + 24h). After this time, the MTT survival test was done. Surviving fraction given in % was estimated with relation to untreated cells. In the case of 6h + 24h and 24h + 24h approaches, the cells were seeded at 10 000 cells per well, while in the case of 72h + 24h at […]

DU-145 [6] = experiment: MTT survival test, surviving fraction (Table S3); type: cell-based, human
Experimental: as §11

HaCat [7] = experiment: MTT survival test, surviving fraction (Table S3); type: cell-based, human
Experimental: as §11

MCF-7 = experiment: MTT survival test, surviving fraction (Table S3); type: cell-based, human
Experimental: as §11

PANC-1 [8] = experiment: MTT survival test, surviving fraction (Table S3); type: cell-based, human
Experimental: as §11

PANC-1 cells [9] = settings: PANC-1, 1 at IC50, others at molar ratio 1:1:1, 72 h after treatment
Experimental: as §1, §2, §3, §4
All media and other ingredients were purchased from ALAB, Poland. […]
Acridine Orange (OA) and Propidium Iodide PI Staining
AO is a nucleic acid-binding fluorophore that is cell membrane permeable and suitable for selective staining of nucleated living cells. PI is a nucleic acid-binding dye that is impermeable to live cells and suitable for staining dead or dying nucleated cells. All live, nucleated cells fluoresce green due to AO, and dead, nucleated cells are stained with both AO and PI and fluoresce red. For analysis of 1-induced

PANC-1 cells [10] = experiment: Mitochondrial membrane potential, JC-10 assay; type: cell-based, human; settings: PANC-1, 4 h, 1 at IC50, others at molar ratio 1:1:1
Experimental: As an important indicator of mitochondrial dysfunction, the variation in mitochondrial membrane potential was monitored by the JC-10 probe (Figure 6C) aiming to understand the importance of mitochondrial disorder during the cancer cell death induced by 1.
Detection of Mitochondrial Membrane Potential (Δψ)
Mitochondrial membrane potential (MMP) depletion was determined by JC-10 Assay (Life
Technologies, USA). […] After 24h
ciprofloxacin (10 µg/mL) as positive and negative control, respectively. After that, cells were incubated
for 4 h at standard condition (37 °C, 5% CO2). Then, they were washed twice with PBS buffer and
incubated with JC-10 for 1 h. Afterwards, emission was measured at two different excitation
wavelengths ( exc = 540 nm,  em = 570 nm) and ( exc = 485 nm,  em = 530 nm). Results are presented as
the intensity ratio of red to green emission (mean + S.D.).

pBR322 plasmid = experiment: DNA strand break analysis, agarose gel electrophoresis; type: biochemical; settings: pBR322, 24 h, even at high concentration (500 μM)
Experimental: Then, the interaction between DNA and diclofenac, PTA, or 1 was evaluated by the gel electrophoresis of pBR322 plasmid to determine an ability to cause double- and/or single-strand DNA damages (Figure 6D). The double-strand damage may result in the appearance of different forms of DNA (linear form III and relaxed form II), which can be quantified by densitometry analysis (Figure 6E).
DNA Strand Break Analysis
The ability of 1, PTA and diclofenac to induce single- or double-strand breaks in plasmid DNA was tested
with the pBR322 plasmid (c = 0.5 mg/mL). All compounds were dissolved in water (c = 1 µM-500 µM).
After 1 h incubation at 37 °C, the reaction mixtures (20 μL) were mixed with 3 μL of loading buffer
(bromophenol blue in 30% glycerol) and loaded on 1% agarose gels, containing EB, in TBE buffer (90
mM Tris–borate, 20 mM EDTA, pH = 8.0). Gel electrophoresis was performed at a constant voltage of
100 V (4 V/cm) for 60 min. The gel was photographed and processed with a Digital Imaging System
(Syngen Biotech). For the densitometric analysis the UltraQuant 6.0 program was used.

C1N2CN3CN1CP(C2)C3 [PTA, 1,3,5-triaza-7-phosphaadamantane]
IC50 (A549 [1]): 1170 ± 14.7 µM
IC50 (DU-145 [2]): 1230 ± 21.9 µM
IC50 (HaCat [3]): 826 ± 8.76 µM
IC50 (MCF7): 1471 ± 14.4 µM
IC50 (MRC5): 867 ± 18.3 µM
IC50 (PANC-1 [4]): 1290 ± 52.6 µM
surviving fraction (A549 [5]; A549, 6h + 24h, dil. 10 000x (stocks: diclofenac 0.918, PTA 0.483, AgNO3 0.326 mg/mL)): 96.8 ± 10.8%
surviving fraction (A549 [5]; A549, 6h + 24h, dil. 100x (stocks: diclofenac 0.918, PTA 0.483, AgNO3 0.326 mg/mL)): 77.5 ± 9.8%
surviving fraction (A549 [5]; A549, 6h + 24h, dil. 1000x (stocks: diclofenac 0.918, PTA 0.483, AgNO3 0.326 mg/mL)): 82.4 ± 12.9%
surviving fraction (A549 [5]; A549, 24h + 24h, dil. 10 000x (stocks: diclofenac 0.918, PTA 0.483, AgNO3 0.326 mg/mL)): 98.6 ± 5.9%
surviving fraction (A549 [5]; A549, 24h + 24h, dil. 100x (stocks: diclofenac 0.918, PTA 0.483, AgNO3 0.326 mg/mL)): 77.2 ± 12.8%
surviving fraction (A549 [5]; A549, 24h + 24h, dil. 1000x (stocks: diclofenac 0.918, PTA 0.483, AgNO3 0.326 mg/mL)): 88.2 ± 8.7%
surviving fraction (A549 [5]; A549, 72h + 24h, dil. 10 000x (stocks: diclofenac 0.918, PTA 0.483, AgNO3 0.326 mg/mL)): 92.7 ± 8.6%
surviving fraction (A549 [5]; A549, 72h + 24h, dil. 100x (stocks: diclofenac 0.918, PTA 0.483, AgNO3 0.326 mg/mL)): 67.3 ± 8.6%
surviving fraction (A549 [5]; A549, 72h + 24h, dil. 1000x (stocks: diclofenac 0.918, PTA 0.483, AgNO3 0.326 mg/mL)): 79.8 ± 7.5%
surviving fraction (DU-145 [6]; Du-145, 6h + 24h, dil. 10 000x (stocks: diclofenac 0.918, PTA 0.483, AgNO3 0.326 mg/mL)): 106.9 ± 9.2%
surviving fraction (DU-145 [6]; Du-145, 6h + 24h, dil. 100x (stocks: diclofenac 0.918, PTA 0.483, AgNO3 0.326 mg/mL)): 78.4 ± 11.8%
surviving fraction (DU-145 [6]; Du-145, 6h + 24h, dil. 1000x (stocks: diclofenac 0.918, PTA 0.483, AgNO3 0.326 mg/mL)): 89.3 ± 8.8%
surviving fraction (DU-145 [6]; Du-145, 24h + 24h, dil. 10 000x (stocks: diclofenac 0.918, PTA 0.483, AgNO3 0.326 mg/mL)): 99.2 ± 7.2%
surviving fraction (DU-145 [6]; Du-145, 24h + 24h, dil. 100x (stocks: diclofenac 0.918, PTA 0.483, AgNO3 0.326 mg/mL)): 73.8 ± 12.6%
surviving fraction (DU-145 [6]; Du-145, 24h + 24h, dil. 1000x (stocks: diclofenac 0.918, PTA 0.483, AgNO3 0.326 mg/mL)): 89.2 ± 5.8%
surviving fraction (DU-145 [6]; Du-145, 72h + 24h, dil. 10 000x (stocks: diclofenac 0.918, PTA 0.483, AgNO3 0.326 mg/mL)): 101.2 ± 12.4%
surviving fraction (DU-145 [6]; Du-145, 72h + 24h, dil. 100x (stocks: diclofenac 0.918, PTA 0.483, AgNO3 0.326 mg/mL)): 62.3 ± 8.7%
surviving fraction (DU-145 [6]; Du-145, 72h + 24h, dil. 1000x (stocks: diclofenac 0.918, PTA 0.483, AgNO3 0.326 mg/mL)): 84.2 ± 8.2%
surviving fraction (HaCat [7]; 6h + 24h, dil. 10 000x (stocks: diclofenac 0.918, PTA 0.483, AgNO3 0.326 mg/mL)): 109.7 ± 6.3%
surviving fraction (HaCat [7]; 6h + 24h, dil. 100x (stocks: diclofenac 0.918, PTA 0.483, AgNO3 0.326 mg/mL)): 99.7 ± 4.9%
surviving fraction (HaCat [7]; 24h + 24h, dil. 10 000x (stocks: diclofenac 0.918, PTA 0.483, AgNO3 0.326 mg/mL)): 98.1 ± 12.1%
surviving fraction (HaCat [7]; 24h + 24h, dil. 100x (stocks: diclofenac 0.918, PTA 0.483, AgNO3 0.326 mg/mL)): 92.2 ± 5.3%
surviving fraction (HaCat [7]; 24h + 24h, dil. 1000x (stocks: diclofenac 0.918, PTA 0.483, AgNO3 0.326 mg/mL)): 96.7 ± 9.7%
surviving fraction (HaCat [7]; 72h + 24h, dil. 10 000x (stocks: diclofenac 0.918, PTA 0.483, AgNO3 0.326 mg/mL)): 100.6 ± 8.1%
surviving fraction (HaCat [7]; 72h + 24h, dil. 100x (stocks: diclofenac 0.918, PTA 0.483, AgNO3 0.326 mg/mL)): 91.2 ± 6.5%
surviving fraction (HaCat [7]; 72h + 24h, dil. 1000x (stocks: diclofenac 0.918, PTA 0.483, AgNO3 0.326 mg/mL)): 98.2 ± 8.4%
surviving fraction (MCF-7; MCF-7, 6h + 24h, dil. 10 000x (stocks: diclofenac 0.918, PTA 0.483, AgNO3 0.326 mg/mL)): 88.6 ± 7.5%
surviving fraction (MCF-7; MCF-7, 6h + 24h, dil. 100x (stocks: diclofenac 0.918, PTA 0.483, AgNO3 0.326 mg/mL)): 78.6 ± 13.1%
surviving fraction (MCF-7; MCF-7, 6h + 24h, dil. 1000x (stocks: diclofenac 0.918, PTA 0.483, AgNO3 0.326 mg/mL)): 89.6 ± 4.8%
surviving fraction (MCF-7; MCF-7, 24h + 24h, dil. 10 000x (stocks: diclofenac 0.918, PTA 0.483, AgNO3 0.326 mg/mL)): 100.2 ± 6.6%
surviving fraction (MCF-7; MCF-7, 24h + 24h, dil. 100x (stocks: diclofenac 0.918, PTA 0.483, AgNO3 0.326 mg/mL)): 70.9 ± 8.8%
surviving fraction (MCF-7; MCF-7, 24h + 24h, dil. 1000x (stocks: diclofenac 0.918, PTA 0.483, AgNO3 0.326 mg/mL)): 82.7 ± 11.5%
surviving fraction (MCF-7; MCF-7, 72h + 24h, dil. 10 000x (stocks: diclofenac 0.918, PTA 0.483, AgNO3 0.326 mg/mL)): 102.5 ± 6.0%
surviving fraction (MCF-7; MCF-7, 72h + 24h, dil. 100x (stocks: diclofenac 0.918, PTA 0.483, AgNO3 0.326 mg/mL)): 84.7 ± 8.9%
surviving fraction (MCF-7; MCF-7, 72h + 24h, dil. 1000x (stocks: diclofenac 0.918, PTA 0.483, AgNO3 0.326 mg/mL)): 88.6 ± 7.9%
surviving fraction (PANC-1 [8]; PANC-1, 6h + 24h, dil. 10 000x (stocks: diclofenac 0.918, PTA 0.483, AgNO3 0.326 mg/mL)): 89.7 ± 12.5%
surviving fraction (PANC-1 [8]; PANC-1, 6h + 24h, dil. 100x (stocks: diclofenac 0.918, PTA 0.483, AgNO3 0.326 mg/mL)): 74.7 ± 9.8%
surviving fraction (PANC-1 [8]; PANC-1, 6h + 24h, dil. 1000x (stocks: diclofenac 0.918, PTA 0.483, AgNO3 0.326 mg/mL)): 86.5 ± 6.4%
surviving fraction (PANC-1 [8]; PANC-1, 24h + 24h, dil. 10 000x (stocks: diclofenac 0.918, PTA 0.483, AgNO3 0.326 mg/mL)): 107.5 ± 6.8%
surviving fraction (PANC-1 [8]; PANC-1, 24h + 24h, dil. 100x (stocks: diclofenac 0.918, PTA 0.483, AgNO3 0.326 mg/mL)): 78.7 ± 8.3%
surviving fraction (PANC-1 [8]; PANC-1, 24h + 24h, dil. 1000x (stocks: diclofenac 0.918, PTA 0.483, AgNO3 0.326 mg/mL)): 85.2 ± 9.5%
surviving fraction (PANC-1 [8]; PANC-1, 72h + 24h, dil. 10 000x (stocks: diclofenac 0.918, PTA 0.483, AgNO3 0.326 mg/mL)): 98.9 ± 8.9%
surviving fraction (PANC-1 [8]; PANC-1, 72h + 24h, dil. 100x (stocks: diclofenac 0.918, PTA 0.483, AgNO3 0.326 mg/mL)): 70.8 ± 6.7%
surviving fraction (PANC-1 [8]; PANC-1, 72h + 24h, dil. 1000x (stocks: diclofenac 0.918, PTA 0.483, AgNO3 0.326 mg/mL)): 83.4 ± 5.1%
cytotoxicity seen by AO/PI staining (PANC-1 cells [9]): did not induce visible cytotoxicity
change of mitochondrial membrane potential (570/530 nm ratio of JC-10 fluorescence intensity) (PANC-1 cells [10]): significant decrease
degradation of plasmid DNA (pBR322 plasmid): no degradation of DNA
